The target of data set [1] is T1, CB1 (Rattus norvegicus, UniProt P20272). As to the kind of experiment: Rat CB1 receptor binding using brain membrane, [3H]SR141716A displacement (Protocol I). On the set-up: CB1 receptor present in a rat brain membrane preparation; from tissue; host or cells: rat brain membrane; inhibition: dose or concentration left out as unconfirmed. To be noted: 1 h; rat brain membrane, [3H]SR141716A displacement; read-out: % Displacement Protocol I.

Data set [2] deals with T2, hCB1 (Homo sapiens, UniProt P21554). Put plainly: Antagonism of CB1 receptors expressed in CHO cells, cAMP assay against CP 55,940 (Protocol IX.1). Type of data set: cell-based. Details: expressed in transfected cells; host or cells: CHO (h-CB1/CHO, G418-selected). To be noted: for inhibition at 10 µM: read-out: hCB1 Antagonism. The procedure: (§1) IX. Assay for Determining Agonist and Antagonist Activity to CB1 and CB2 Receptors
(§2) 1. Antagonism of CB1/CB2 Receptors Expressed in CHO Cells.
(§3) h-CB1/CHO or h-CB2/CHO cells were grown in HAM's F12 DMEM medium (Sigma) with 10% FBS (Hyclone), 1% penicillin-streptomycin solution and 400 μg/ml of G418 (Sigma). 5000 cells were seeded per well in a 96 well plate and incubated for 24 hours at 37° C. in 5% CO2. On the day of assay, cells were washed with warm Krebs buffer containing 0.1% fatty acid free (FAF) BSA (Sigma) and re-suspended in the same buffer containing 1 mM IBMX. […] At the end of incubation, cells were lysed using lysis reagent from the cAMP estimation kit and cAMP was quantitated by the chemiluminescence method described in the manufacturer's instructions (DiscoveRX). EC50 values were calculated from dose response curves by nonlinear regression analysis using PRISM software.

Data set [3] addresses T1, CB1. Put plainly: GTPγS binding assay, CB1 functional assay in rat cerebellar membrane (Protocol VIII). Type of data set: biochemical. Details: 10 μg rat cerebellum membrane; from tissue; host or cells: rat cerebellum membrane, prepared in-house. In a few lines:
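Rat cerebellar membranes (10 μg) incubated 1 h at 30 °C with 0.2 nM [35S]GTPγS, 50 μM GDP, and compound at 1 μM or 300 nM, alone or with 1 μM WIN 55,212-2, in Tris/MgCl2/EGTA/NaCl pH 7.4. Filter-bound radioactivity counted; percent stimulation calculated against basal specific binding (nonspecific defined by 10 μM GTPγS).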
(GTPγS resists hydrolysis and so accumulates on activated G proteins.)

For data set [4], the target named is T2, hCB1. Put plainly: Agonism of CB1 receptors expressed in CHO cells, forskolin cAMP assay (Protocol IX.2). It is filed as cell-based. On the set-up: expressed in transfected cells; host or cells: CHO (h-CB1/CHO, G418-selected). To be noted: for activation at 10 µM: CHO; for activation at 10 µM / hCB1 Agonism: h-CB1/CHO cells, cAMP, at 10 uM. The procedure: as §1
(§4) 2. Agonism of CB1/CB2 Receptors Expressed in CHO Cells
as §3, with “Krebs Buffer” for “Krebs buffer”, “by” for “by the”

Data set [5] has as its target T3, hCB2 (Homo sapiens, UniProt P34972). Put plainly: Antagonism of CB2 receptors expressed in CHO cells, cAMP assay against CP 55,940 (Protocol IX.1). It is filed as cell-based. Details: expressed in transfected cells; host or cells: CHO (h-CB2/CHO, G418-selected). To be noted: h-CB2/CHO cells, vs 10 nM CP 55,940; for inhibition at 10 µM: CHO. The procedure:
as §1, §2
h-CB1/CHO or h-CB2/CHO cells were grown in HAM's F12 DMEM medium (Sigma) with 10% FBS (Hyclone), 1% penicillin-streptomycin solution and 400 μg/ml of G418 (Sigma). 5000 cells were seeded per well in a 96 well plate and incubated for 24 hours at 37° C. in 5% CO2. On the day of assay, cells were washed with warm Krebs buffer containing 0.1% fatty acid free (FAF) BSA (Sigma) and re-suspended in the same buffer containing 1 mM IBMX. Test antagonist or reference compound (AM 251 (1-(2,4-dichlorophenyl)-5-(4-iodophenyl)-4-methyl-N-(1-piperidyl)pyrazole-3-carboxamide) for CB1 and SR144528 for CB2) diluted in FAFBSA+IBMX+Krebs buffer was added to the cells and incubated for 10 minutes at room temperature. CP 55,940 (30 nM final concentration for CB1 testing and 10 nM of the same for CB2 testing) was added to cells followed by forskolin (10 μM final concentration) and incubated for 30 minutes at room temperature. At the end of incubation, cells were lysed using lysis reagent from the cAMP estimation kit and cAMP was quantitated by the chemiluminescence method described in the manufacturer's instructions (DiscoveRX). EC50 values were calculated from dose response curves by nonlinear regression analysis using PRISM software.
For orientation: Cyclic AMP is a second messenger, typically raised through Gs and lowered through Gi signalling.

The target of data set [6] is T3, hCB2. Put plainly: In vitro binding assay using hCB2-CHO membranes, [3H]-CP-55,940 displacement (Protocol IV). Details: expressed in transfected cells; host or cells: CHO (hCB2-CHO, generated in-house). To be noted: 1 h, read-out: % Displacement Protocol IV. In a few lines:
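Displacement of [3H]-CP-55,940 (0.75 nM) from membranes of CHO cells expressing human CB2 (25-50 μg) was measured in Tris-BSA buffer pH 7.4 with 5 mM MgCl2, 1 mM EDTA, 0.1% BSA, 1 h at 30 °C. Test compounds were at 300 nM final; nonspecific binding defined with 0.5 μM CP-55,940. Values are % displacement of specific binding.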

Data set [7] deals with T3, hCB2. Put plainly: Agonism of CB2 receptors expressed in CHO cells, forskolin cAMP assay (Protocol IX.2). It is filed as cell-based. Details: expressed in transfected cells; host or cells: CHO (h-CB2/CHO, G418-selected). To be noted: for IC50: cAMP. The protocol:
as §1, §4
h-CB1/CHO or h-CB2/CHO cells were grown in HAM's F12 DMEM medium (Sigma) with 10% FBS (Hyclone), 1% penicillin-streptomycin solution and 400 μg/ml of G418 (Sigma). 5000 cells were seeded per well in a 96 well plate and incubated for 24 hours at 37° C. in 5% CO2. On the day of assay, cells were washed with warm Krebs Buffer containing 0.1% fatty acid free (FAF) BSA (Sigma) and re-suspended in the same buffer containing 1 mM IBMX. Test compound or CP 55,940 as a reference compound (30 nM final concentration for CB1 testing and 10 μM of the same for CB2 testing) diluted in FFB+IBMX+Krebs buffer was added to the cells followed by forskolin addition (10 uM final concentration) and incubated for 30 minutes at room temperature. At the end of incubation, cells were lysed using lysis reagent from the cAMP estimation kit and cAMP was quantitated by chemiluminescence method described in the manufacturer's instructions (DiscoveRX). EC50 values were calculated from dose response curves by nonlinear regression analysis using PRISM software.

Setting [8] is: at 10 uM, h-CB1/CHO cells, cAMP, vs 30 nM CP 55,940.
Where [9] appears, read: h-CB2/CHO cells, read-out: hCB2 Agonism IC50.
The mark [10] stands for this setting: hCB2-CHO membranes, [3H]-CP-55,940 displacement.

The values that follow come from patent US7923465B2, “Cannabinoid receptor ligands, pharmaceutical compositions containing them, and process for their preparation” (priority 2005, dated 2011).

SMILES strings stand for the structures. Read-outs that look alike come from different tables or passages of the source.

Usually melting point stands for the temperature, or range, at which the solid turns liquid. The IC50 is the point on the concentration scale where inhibition reaches its midpoint.

T2 sequence (P21554 whole entry): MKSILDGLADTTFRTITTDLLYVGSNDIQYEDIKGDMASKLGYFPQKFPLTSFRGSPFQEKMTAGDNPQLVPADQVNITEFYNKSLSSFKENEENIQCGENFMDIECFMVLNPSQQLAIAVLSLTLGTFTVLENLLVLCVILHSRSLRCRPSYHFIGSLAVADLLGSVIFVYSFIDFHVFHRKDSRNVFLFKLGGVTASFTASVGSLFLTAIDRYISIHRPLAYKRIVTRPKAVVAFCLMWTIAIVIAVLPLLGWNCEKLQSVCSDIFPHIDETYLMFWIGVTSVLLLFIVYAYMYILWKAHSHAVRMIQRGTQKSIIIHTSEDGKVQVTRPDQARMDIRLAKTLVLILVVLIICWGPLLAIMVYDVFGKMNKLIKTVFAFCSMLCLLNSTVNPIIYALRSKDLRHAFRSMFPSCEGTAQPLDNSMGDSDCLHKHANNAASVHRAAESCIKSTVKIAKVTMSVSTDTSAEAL
T3 sequence (P34972 whole entry): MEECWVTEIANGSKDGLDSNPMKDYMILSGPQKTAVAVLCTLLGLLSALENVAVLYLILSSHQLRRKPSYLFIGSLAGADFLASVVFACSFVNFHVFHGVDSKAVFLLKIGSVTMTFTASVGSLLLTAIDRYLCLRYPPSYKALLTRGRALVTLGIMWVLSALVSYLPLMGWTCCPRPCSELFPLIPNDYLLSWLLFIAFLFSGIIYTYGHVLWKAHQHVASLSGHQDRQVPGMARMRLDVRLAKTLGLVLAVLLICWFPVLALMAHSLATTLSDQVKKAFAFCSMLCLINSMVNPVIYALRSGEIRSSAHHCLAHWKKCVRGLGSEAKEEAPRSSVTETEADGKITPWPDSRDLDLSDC
T1 sequence (P20272 whole entry): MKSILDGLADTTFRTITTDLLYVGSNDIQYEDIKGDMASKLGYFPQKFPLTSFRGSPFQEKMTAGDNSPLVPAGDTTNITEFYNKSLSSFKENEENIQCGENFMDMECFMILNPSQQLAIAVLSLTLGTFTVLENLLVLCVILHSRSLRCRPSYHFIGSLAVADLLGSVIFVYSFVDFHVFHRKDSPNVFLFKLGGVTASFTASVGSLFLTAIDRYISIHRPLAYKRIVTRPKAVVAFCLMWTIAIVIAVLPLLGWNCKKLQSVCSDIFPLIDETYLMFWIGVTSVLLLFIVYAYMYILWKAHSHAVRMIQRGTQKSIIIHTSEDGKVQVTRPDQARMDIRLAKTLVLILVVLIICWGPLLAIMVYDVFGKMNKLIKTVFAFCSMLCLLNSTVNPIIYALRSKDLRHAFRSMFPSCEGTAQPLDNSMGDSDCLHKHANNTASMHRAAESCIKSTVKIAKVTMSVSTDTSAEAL

`O=C(NNc1ncccc1Cl)c1nn(-c2ccc(Cl)cc2)c2c1C1CC3CC(C1)CC2C3` [Example 134, N(7)-(3-Chloro-2-pyridylamino)-5-(4-chlorophenyl)-5,6-diazatetracyclo[7.3.1.1^3,11.0^4,8]tetradeca-4(8),6-diene-7-carboxamide] had a melting point of 200 to 203 °C. For the same compound, the inhibition in data set [1] came out at 89.6%. In addition, the inhibition at 10 µM in data set [2] (setting [8]) was 17.5%. Besides, the activation at 0.3 µM in data set [3] (1 h, GTPγS binding over basal, rat cerebellar membrane, tested at 300 nM, read-out: Per Se % Stimulation) was -6%. The inhibition at 0.3 µM in data set [3] (GTPγS binding, tested at 300 nM in presence of 1 μM WIN 55,212-2, read-out: % Inhibition of WIN-55212-2 induced stimulation) amounted to 58.1%. For the same compound, the activation at 10 µM in data set [4] is 75.6%.
The compound `O=C(NCC1CC1)c1nn(-c2ccc(F)cc2F)c2c1C1CCC2C1` (centres unmarked) [Example 314, N(3)-Cyclopropanmethyl-1-(2,4-difluorophenyl)-4,5,6,7-tetrahydro-1H-4,7-methano-indazole-3-carboxamide] gave a melting point of 113 to 115 °C. Also, in data set [2] (setting [8]), the inhibition at 10 µM amounted to 0%. The inhibition at 10 µM in data set [5] is 22.9%. For the same compound, in data set [6], the inhibition at 0.3 µM was 64.9%. The IC50 in data set [7] (setting [9]) amounted to 8.52 nM. Moreover, the activation at 10 µM in data set [4] is 3.41%.
The compound `O=C(NNc1cccc(F)c1)c1nn(-c2ccc(Cl)cc2Cl)c2c1C1CCC2C1` (centres unmarked) [Example 266, N(3)-[(3-Fluorophenyl)amino]-1-(2,4-dichlorophenyl)-4,5,6,7-tetrahydro-1H-4,7-methano-indazole-3-carboxamide] gave a melting point of 190 °C. In addition, in data set [1], the inhibition was 34.5%. Besides, the inhibition at 10 µM in data set [5] is 27.7%. Besides, the inhibition at 0.3 µM in data set [6] (setting [10]) stood at 62%. This compound also registered an IC50 in data set [7] (hCB2 Agonism IC50, h-CB2/CHO cells) of 14 nM. Besides, the activation at 10 µM in data set [4] amounted to 12.1%.
Turning to `O=C(NC(CO)c1ccccc1)c1nn(-c2ccc(F)cc2F)c2c1C1CCC2C1` [Example 302, N5-[(1S)-2-Hydro-1-phenylethyl]-3-(2,4-difluorophenyl)-3,4-diazatricyclo[5.2.1.0.^2,6]deca-2(6),4-diene-5-carboxamide], the melting point turned out to be 91 °C. Further, the inhibition at 10 µM in data set [5] amounted to 0%. The inhibition at 0.3 µM in data set [6] was 71.8%. Besides, in data set [7] (setting [9]), the IC50 was 9.75 nM. Moreover, in data set [4], the activation at 10 µM was 19%.
As for `O=C(N[C@@H](CO)c1ccccc1)c1nn(-c2ccc(F)cc2F)c2c1C1CCC2C1` (stereo partly drawn) [Example 320, N(3)-[(1R)-2-Hydroxy-1-phenylethyl]-1-(2,4-difluorophenyl)-4,5,6,7-tetrahydro-1H-4,7-methano-indazole-3-carboxamide], the inhibition at 10 µM amounted to 0% in data set [2] (setting [8]) and 22.5% in data set [5]. Also, the inhibition at 0.3 µM in data set [6] came to 67.8%. In data set [7] (setting [9]), the IC50 fell in the range of 0.76 to 1.25 nM. For the same compound, in data set [4], the activation at 10 µM was 29.1%.
Turning to `CC(C)(C)NC(=O)c1nn(-c2ccc(F)cc2F)c2c1[C@@H]1CC[C@H]2C1` (single isomer, unassigned) [Example 305], the “hCB1 Antagonism” value in data set [2] (setting [8]) is recorded as 0% at 10 uM. The “hCB2 Antagonism” value in data set [5] (at 10 uM) is reported as 37.45% at. Also, in data set [7] (setting [9]), the IC50 was found to be 2.16 nM. Besides, the “hCB1 Agonism” value in data set [4] amounted to 20% at.
For the compound `CC(C)(C)NC(=O)c1nn(-c2ccc(F)cc2F)c2c1C1CCC2C1` (centres unmarked) [Example 303, N(3)-(tert-Butyl)-1-(2,4-difluorophenyl)-4,5,6,7-tetrahydro-1H-4,7-methano-indazole-3-carboxamide], the inhibition at 10 µM in data set [2] (CHO) turned out to be 0%; in data set [5] it was 17.6%. Moreover, the inhibition at 0.3 µM in data set [6] worked out at 89.7%. In addition, the IC50 in data set [7] (setting [9]) turned out to be 0.61 nM; in data set [4] it was 10900 nM.
Turning to `CC(C)(C)NC(=O)c1nn(-c2ccc(F)cc2F)c2c1[C@@H]1CC[C@H]2C1` (single isomer, unassigned) [Example 304], the inhibition at 10 µM in data set [2] (setting [8]) stood at 0%; in data set [5], 51.6%. For the same compound, the IC50 in data set [7] (setting [9]) is 0.93 nM. Besides, the “hCB1 Agonism” value in data set [4] was 55% at.
On to `O=C(NC1CCCCC1)c1nn(-c2ccccc2)c2c1C1CCC2C1` (centres unmarked) [Example 202, N(3)-Cyclohexyl-1-phenyl-4,5,6,7-tetrahydro-1H-4,7-methano-indazole-3-carboxamide], for which the melting point was 107 °C. Also, the inhibition in data set [1] was found to be 28.2%. The inhibition at 10 µM in data set [2] (setting [8]) was found to be 0%. For the same compound, the inhibition at 0.3 µM in data set [6] (setting [10]) stood at 70.1%. Also, the “hCB2 Agonism” value in data set [7] (bare number, no unit or concentration given) came out at 16.79. In data set [4], the activation at 10 µM stood at 0%.
